The values that follow come from patent US20260193116A1, “MEMBRANE TREATMENT METHOD, BIOFOULING INHIBITION METHOD, AND ENDOTOXIN PRODUCTION INHIBITION METHOD IN WATER SYSTEM” (KURITA WATER INDUSTRIES LTD., priority 2022, published 2026).

In test [1] the test system is endotoxin.
Test [2] concerns endotoxin. This is another data set of the same source.

Regarding `O=S(=O)(O)NCl.[Na]` [Chlorosulfamic acid, sodium monochlorosulfamic acid], in the test on endotoxin [1], the “Endotoxin concentration compared to the treatments with chloramine, DBNPA and Cl-MIT alone” value is reported as at most 50%. Besides, in the test with endotoxin [2], the “Discharge amount of endotoxin compared to raw water and Control (in words)” value is “suppress the discharge amount of endotoxin to be low compared to the raw water and Control”. In the test with endotoxin [1], `N#CC(Br)(Br)C(N)=O` [DBNPA, 2,2-dibromo-3-nitrilopropionamide, reference compound] yielded an Endotoxin concentration of 19.1 EU/mL. Chloramine [reference compound]: in the test on endotoxin [1], the Endotoxin concentration is 31.1 EU/mL.
